US20240148835A1, “TREATING DISORDERS ASSOCIATED WITH DYRK1A DYSFUNCTION” (UNIVERSITY OF FLORIDA RESEARCH FOUNDATION, INCORPORATED, priority 2021, published 2024)
“Also recorded” adds a separate entry of the source.

System: neonatal cHets
Experiment: Neonatal GSK3 inhibitor SB216763 treatment: cortex mass, isotropic fractionator cell number and density
Format: in vivo, mouse
Protocol: We utilized the previously mentioned neonatal paradigm to inject cHets daily with GSK3 inhibitor SB216763 or vehicle from P0 to P7 (FIG. 25A).
(1-3)IGF-1 was acquired from VWR/Bachem (catalog #H-2468.1000) and dissolved in saline with 0.01% BSA fresh every day. Intraperitoneal injections of 10 mg kg′ (1-3)IGF-1 or vehicle were delivered daily at 8 a.m. starting on P14 and ending on P85. […] The S6K1 inhibitor PF-4708671 was acquired from Medkoo Biosciences (#406432) dissolved in 10% DMSO, 10% tween 80 and 80% water. (1-3)IGF-1 (10 mg kg′) and PF-4708671 (50 mg kg^−1) or vehicle were injected subcutaneously into pups from P0 to P7. Rapamycin was acquired from LC laboratories (R-5000) and dissolved in 4% ethanol, 5% tween-80, and 5% PEG400 in PBS. (1-3)IGF-1 (10 mg kg′) and Rapamycin (1 mg kg′) or vehicle were injected subcutaneously into pups from P0 to P7. SB216763 was acquired from TOCRIS (#1616) and dissolved in 5% DMSO and 0.9% saline in dH20. SB216763 (0.5 mg kg′) was injected subcutaneously into pups from P0 to P7.
Adult animals were perfused with 4% PFA, and pups underwent rapid decapitation and dissection. Brains were fixed in 4% PFA for one week, and then the cortex was dissected out and dissociated in a 7 ml glass tissue homogenizer (Kontes Glass) in dissociation buffer (1% Triton X-100 in 40 mM sodium citrate). 1 ml of nuclei was removed and stained with 1:50 DAPI (Invitrogen, catalog #D3571) before being loaded onto a hemocytometer (Fisher Scientific, catalog #0267110). Per animal, 6 technical replicates of 10 μl nuclei were imaged and counted in the hemocytometer (0.1 μl nuclei counted per technical replicate). After calculating the total cell number per cortex, the number of cells was divided by mg of cortex to obtain density.

[1] = 0.5 mg kg subcutaneous daily P0 to P7

For Cn1cc(C2=C(c3ccc(Cl)cc3Cl)C(=O)NC2=O)c2ccccc21 [SB216763], the cellular density [1] was “no effect on cellular density; also recorded: unaltered by any genotype or treatment”, the “cortex mass of controls” value [1] was “no effect; also recorded: unaltered by treatment” and the “cortical cell number of cHets” value [1] was “restored the decreased cellular number; also recorded: restored by SB216763 treatment”. The “cortical cell number of controls” value [1] was “no effect on SB216763-treated controls” and the “cortex mass of cHets” value (0.5 mg kg subcutaneous daily P0 to P7, vs vehicle-treated controls) was “normalized cortex mass; also recorded: restored by treatment with SB216763”.
